Counter-ions that a name gives are not always drawn. Like-named read-outs stand apart in the source and are kept apart here.
Test system: LMP1 expression in Kem I cells
Assay: microbe, parasite or virus in culture
Assay type: cell-based, EBV
Conditions: for fold induction at 2.5 µM: human gammaherpesvirus 4, 48 h
[1] = read-out: Average LMP1 Fold Increase, Kem I cells, dose 2.5 uM, 48 hours, LMP1 transcript by in-well qRT-PCR, average of the two replicates
[2] = read-out: Replicate 1-LMP1 Fold Increase, Kem I cells, dose 2.5 uM, 48 hours, LMP1 transcript by in-well qRT-PCR, screen replicate 1
[3] = read-out: Replicate 2-LMP1 Fold Increase, Kem I cells, dose 2.5 uM, 48 hours, LMP1 transcript by in-well qRT-PCR, screen replicate 2
[4] = Kem I cells, dose 2.5 uM, 48 hours, LMP1 transcript by in-well qRT-PCR, average of the two replicates
[5] = Kem I cells, dose 2.5 uM, 48 hours, LMP1 transcript by in-well qRT-PCR, screen replicate 1
[6] = Kem I cells, dose 2.5 uM, 48 hours, LMP1 transcript by in-well qRT-PCR, screen replicate 2

Structure (SMILES) | fold induction at 2.5 µM [1] | fold induction at 2.5 µM [2] | fold induction at 2.5 µM [3] | Average LMP1 Fold Increase [4] | Replicate 1-LMP1 Fold Increase [5] | Replicate 2-LMP1 Fold Increase [6] | further results
Clc1ccccc1CN1CCc2sccc2C1 [Ticlopidine HCl] | 1.15 | 0.52 | 1.78 |  |  |  | 
COc1ccc2cc(-c3nc(-c4ccc([S+](C)[O-])cc4)[nH]c3-c3ccncc3)ccc2c1 (stereo not drawn) [Tie2 kinase inhibitor] |  |  |  | 1.08 fold | 0.36 fold | 1.81 fold | 
O=c1oc2cc(O)ccc2s1 [Tioxolone] | 0.55 | 0.7 | 0.41 |  |  |  | 
C[C@@H]1CCN(C(=O)CC#N)C[C@@H]1N(C)c1ncnc2[nH]ccc12 [Tofacitinib (CP-690550,Tasocitinib)] |  |  |  | 0.46 fold | 0.09 fold | 0.82 fold | 
c1ccc(CC2=NCCN2)cc1 [Tolazoline HCl] | 0.26 | 0.26 | 0.27 |  |  |  | 
Cc1c(Cl)cccc1Nc1ccccc1C(=O)O [Tolfenamic Acid] | 0.15 | 0.11 | 0.2 |  |  |  | 
Cc1ccccc1C(=O)Nc1ccc(C(=O)N2CCCC(O)c3cc(Cl)ccc32)c(C)c1 (stereo not drawn) [Tolvaptan] | 4.67 | 1.11 | 8.24 |  |  |  | 
CCOC(=O)N1c2ccc(C(F)(F)F)cc2[C@@H](N(Cc2cc(C(F)(F)F)cc(C(F)(F)F)c2)C(=O)OC)C[C@H]1CC [Torcetrapib] | 0.5 | 0.4 | 0.6 |  |  |  | 
CN(C)CCOc1ccc(/C(=C(/CCCl)c2ccccc2)c2ccccc2)cc1 [Toremifene Citrate] | 0.54 | 0.55 | 0.54 |  |  |  | 
CC(C)C[C@@H](C(=O)N[C@H](C(=O)OC1CCCC1)c1ccccc1)[C@H](O)C(=O)NO [Tosedostat (CHR2797)] |  |  |  | 0.64 fold | 0.56 fold | 0.72 fold | 
Cn1c(=O)cc(N2CCC[C@@H](N)C2)n(Cc2cc(F)ccc2C#N)c1=O [Trelagliptin] | 0.63 | 0.96 | 0.31 |  |  |  | 
Nc1nc(N)c2nc(-c3ccccc3)c(N)nc2n1 [Triamterene] | 0.91 | 0.56 | 1.26 |  |  |  | 
CC(/C=C/C(=O)NO)=C\[C@@H](C)C(=O)c1ccc(N(C)C)cc1 [Trichostatin A (TSA)] |  |  |  | 88.29 fold | 44.18 fold | 132.40 fold | 
CCC(COC(=O)c1cc(OC)c(OC)c(OC)c1)(c1ccccc1)N(C)C (stereo not drawn) [Trimebutine] | 1.37 | 2.11 | 0.63 |  |  |  | 
O=C(O[C@H]1C[C@H]2CC[C@@H](C1)[N+]21CCCC1)C(O)(c1ccccc1)c1ccccc1 [Trospium chloride] | 0.35 | 0.33 | 0.37 |  |  |  | 
CC(C)(C)c1cc(/C=C(\C#N)C(N)=S)cc(C(C)(C)C)c1O [Tyrphostin AG 879] |  |  |  | 0.74 fold | 0.53 fold | 0.95 fold | 
CCO.N#CC(=C(/N)Sc1ccccc1N)/C(C#N)=C(\N)Sc1ccccc1N [U0126-EtOH] |  |  |  |  |  |  | Average LMP1 Fold Increase: 0.58 fold; Replicate 1-LMP1 Fold Increase: 0.51 fold; Replicate 2-LMP1 Fold Increase: 0.65 fold
O=C(c1cncc(Br)c1)N1CCC(N2CCCC2)CC1 [UNC669] |  |  |  | 0.50 fold | 0.75 fold | 0.25 fold | 
CCCCNc1ncc(-c2ccc(CN3CCOCC3)cn2)c(NC2CCC(O)CC2)n1 (stereo not drawn) [UNC2250] |  |  |  | 0.41 fold | 0.54 fold | 0.29 fold | 
NC(=O)c1cccc(-c2cccc(OC(=O)NC3CCCCC3)c2)c1 [URB597] | 0.54 | 0.52 | 0.55 |  |  |  | 
CS(=O)(=O)c1ccc(-c2cnc(N)c(C(=O)Nc3ccccc3)n2)cc1 [VE-821] | 0.17 | 0.2 | 0.14 |  |  |  | 
CNCc1ccc(-c2cc(-c3nc(-c4ccc(S(=O)(=O)C(C)C)cc4)cnc3N)on2)cc1 [VE-822] | 4.03 | 3.28 | 4.78 |  |  |  | 
Cc1cc(Nc2cc(N3CCN(C)CC3)nc(Sc3ccc(NC(=O)C4CC4)cc3)n2)n[nH]1 [VX-680 (Tozasertib, MK-0457)] |  |  |  | 0.74 fold | 0.96 fold | 0.52 fold | 

Structure (SMILES) | fold induction at 2.5 µM [1] | fold induction at 2.5 µM [2] | fold induction at 2.5 µM [3] | Average LMP1 Fold Increase [4] | Replicate 1-LMP1 Fold Increase [5] | Replicate 2-LMP1 Fold Increase [6] | further results
O=c1ncn2nc(Sc3ccc(F)cc3F)ccc2c1-c1c(Cl)cccc1Cl [VX-745] | 0.49 | 0.75 | 0.24 |  |  |  | 
CCO[C@@H]1OC(=O)C[C@@H]1NC(=O)[C@@H]1CCCN1C(=O)[C@@H](NC(=O)c1ccc(N)c(Cl)c1)C(C)(C)C [VX-765] | 0.41 | 0.45 | 0.37 |  |  |  | 
Cc1ccc(NC(=O)C2(c3ccc4c(c3)OC(F)(F)O4)CC2)nc1-c1cccc(C(=O)O)c1 [VX-809 (Lumacaftor)] |  |  |  | 0.87 fold | 0.55 fold | 1.18 fold | 
COc1cc2/c(=N/c3ccc(Br)cc3F)nc[nH]c2cc1OCC1CCN(C)CC1 [Vandetanib (ZD6474)] |  |  |  | 1.14 fold | 0.81 fold | 1.47 fold | 
CCc1c(C(=O)C(N)=O)c2c(OCC(=O)O)cccc2n1Cc1ccccc1 [Varespladib (LY315920)] |  |  |  | 0.52 fold | 0.35 fold | 0.69 fold | 
C[C@]1(c2nc3c(C(N)=O)cccc3[nH]2)CCCN1 [Veliparib (ABT-888)] |  |  |  | 1.08 fold | 0.71 fold | 1.45 fold | 
CCCS(=O)(=O)Nc1ccc(F)c(C(=O)c2c[nH]c3ncc(-c4ccc(Cl)cc4)cc23)c1F [Vemurafenib (PLX4032, RG7204)] |  |  |  | 0.41 fold | 0.33 fold | 0.50 fold | 
N#C[C@@H]1CCCN1C(=O)CNC12CC3CC(CC(O)(C3)C1)C2 [Vildagliptin (LAF-237)] |  |  |  | 0.72 fold | 0.58 fold | 0.87 fold | 
C[C@@H](c1ncncc1F)[C@](O)(Cn1cncn1)c1ccc(F)cc1F [Voriconazole] | 1.48 | 1.02 | 1.94 |  |  |  | 
c1ccc(NCc2ccc(CNc3ccccn3)cc2)nc1 [WZ811] |  |  |  | 0.08 fold | 0.08 fold | 0.08 fold | 
C=CC(=O)Nc1cccc(Oc2nc(Nc3ccc(N4CCN(C)CC4)cc3OC)ncc2Cl)c1 [WZ4002] |  |  |  | 0.90 fold | 0.58 fold | 1.23 fold | 
CCC(=O)Nc1cccc(Oc2nc(Nc3ccc(N4CCN(C)CC4)cc3OC)ncc2Cl)c1 [WZ4003] |  |  |  | 0.72 fold | 0.79 fold | 0.64 fold | 
Cc1cc(-c2ccc(CC(=O)Nc3ccc(-c4cccnc4)cc3)cc2)ccn1 [Wnt-C59 (C59)] |  |  |  | 0.98 fold | 0.60 fold | 1.35 fold | 
Oc1nc(-c2ccc(C(F)(F)F)cc2)nc2c1CSCC2 [XAV-939] | 0.73 | 0.73 | 0.73 |  |  |  | 
CC(C)OC(=O)C1=CN(C(=O)c2ccc(F)c(F)c2)CC(C)(C)c2c1[nH]c1ccccc21 [XL335] | 0.27 | 0.39 | 0.14 |  |  |  | 
COCC[n+]1c2c(n(Cc3cnccn3)c1C)C(=O)c1ccccc1C2=O.[Br-] [YM155 (Sepantronium Bromide)] |  |  |  | 0.00 fold | 0.00 fold | 0.00 fold | 
C[C@H](NC(=O)Cc1cc(F)cc(F)c1)C(=O)N[C@@H]1C(=O)N(C)c2ccccc2-c2ccccc21 [YO-01027] |  |  |  | 0.35 fold | 0.44 fold | 0.27 fold | 
Cc1cc(C)nc(NS(=O)(=O)c2ccc(NC(=S)NC(=O)COc3ccc(Br)cc3Cl)cc2)n1 [ZCL278] |  |  |  | 0.85 fold | 1.26 fold | 0.44 fold | 
COc1cc2ncnc(Nc3ccc(Cl)cc3F)c2cc1OC [ZM 306416] |  |  |  | 0.85 fold | 0.70 fold | 1.00 fold | 
COc1cc2c(Nc3ccc(NC(=O)c4ccccc4)cc3)ncnc2cc1OCCCN1CCOCC1 [ZM 447439] |  |  |  | 0.37 fold | 0.34 fold | 0.40 fold | 
O=c1ncccn1[C@@H]1O[C@H](CO)[C@@H](O)[C@H]1O [Zebularine] | 0.52 | 0.24 | 0.79 |  |  |  | 
COc1nc(C)cnc1NS(=O)(=O)c1cccnc1-c1ccc(-c2nnco2)cc1 [Zibotentan (ZD4054)] |  |  |  | 0.77 fold | 0.57 fold | 0.97 fold | 
